Results: US12479847B2 (DANA-FARBER CANCER INSTITUTE, INC., priority 2019, dated 2025)

Experiments:
Assay in all cases: KINOMEscan (ScanMAX) kinase profiling
Format in all cases: binding
panel of 468 kinases [1] = molecular target: T1, panel of 468 kinases (Homo sapiens, UniProt Q2M2I8); conditions: AAK1; 1 μM; read-out: % control
T1 construct: purchased KINOMEscan (ScanMAX) service

panel of 468 kinases [2] = molecular target: T2, panel of 468 kinases (Homo sapiens, UniProt Q8N752); conditions: CSNK1A1L; 1 μM; read-out: % control
T2 construct: purchased KINOMEscan (ScanMAX) service
T2 sequence (Q8N752 1-337): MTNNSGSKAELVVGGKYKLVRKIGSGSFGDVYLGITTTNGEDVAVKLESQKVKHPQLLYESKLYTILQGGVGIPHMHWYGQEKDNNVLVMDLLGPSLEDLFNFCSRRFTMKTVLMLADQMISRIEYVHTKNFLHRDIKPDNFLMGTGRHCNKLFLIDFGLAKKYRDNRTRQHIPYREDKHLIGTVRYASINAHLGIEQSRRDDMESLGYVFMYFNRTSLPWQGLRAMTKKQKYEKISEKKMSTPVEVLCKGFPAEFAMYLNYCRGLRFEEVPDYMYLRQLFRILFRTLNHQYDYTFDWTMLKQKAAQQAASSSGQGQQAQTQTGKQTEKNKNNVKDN

panel of 468 kinases [3] = molecular target: T3, panel of 468 kinases (Homo sapiens, UniProt Q9BWU1); conditions: CDK11; 1 μM; read-out: % control
T3 construct: purchased KINOMEscan (ScanMAX) service
T3 sequence (Q9BWU1 whole entry): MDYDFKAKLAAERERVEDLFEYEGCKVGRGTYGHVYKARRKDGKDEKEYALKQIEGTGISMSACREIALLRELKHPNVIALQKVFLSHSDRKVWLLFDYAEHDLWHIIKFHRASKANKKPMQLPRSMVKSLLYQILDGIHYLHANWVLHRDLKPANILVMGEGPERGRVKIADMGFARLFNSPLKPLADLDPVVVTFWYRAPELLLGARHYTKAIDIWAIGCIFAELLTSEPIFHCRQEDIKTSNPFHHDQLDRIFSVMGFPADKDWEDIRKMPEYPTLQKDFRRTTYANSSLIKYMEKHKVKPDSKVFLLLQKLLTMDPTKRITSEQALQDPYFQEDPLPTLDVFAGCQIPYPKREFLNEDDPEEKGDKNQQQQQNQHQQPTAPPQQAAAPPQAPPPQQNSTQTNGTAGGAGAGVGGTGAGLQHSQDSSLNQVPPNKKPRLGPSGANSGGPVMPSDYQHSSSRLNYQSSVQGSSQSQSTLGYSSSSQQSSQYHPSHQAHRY

panel of 468 kinases [4] = molecular target: T4, panel of 468 kinases (Homo sapiens, UniProt P22694); conditions: PKAC-beta; 1 μM; read-out: % control
T4 construct: purchased KINOMEscan (ScanMAX) service

panel of 468 kinases [5] = molecular target: T5, panel of 468 kinases (Homo sapiens, UniProt Q8NFD2); conditions: ANKK1; 1 μM; read-out: % control
T5 construct: purchased KINOMEscan (ScanMAX) service
T5 sequence (Q8NFD2 1-765): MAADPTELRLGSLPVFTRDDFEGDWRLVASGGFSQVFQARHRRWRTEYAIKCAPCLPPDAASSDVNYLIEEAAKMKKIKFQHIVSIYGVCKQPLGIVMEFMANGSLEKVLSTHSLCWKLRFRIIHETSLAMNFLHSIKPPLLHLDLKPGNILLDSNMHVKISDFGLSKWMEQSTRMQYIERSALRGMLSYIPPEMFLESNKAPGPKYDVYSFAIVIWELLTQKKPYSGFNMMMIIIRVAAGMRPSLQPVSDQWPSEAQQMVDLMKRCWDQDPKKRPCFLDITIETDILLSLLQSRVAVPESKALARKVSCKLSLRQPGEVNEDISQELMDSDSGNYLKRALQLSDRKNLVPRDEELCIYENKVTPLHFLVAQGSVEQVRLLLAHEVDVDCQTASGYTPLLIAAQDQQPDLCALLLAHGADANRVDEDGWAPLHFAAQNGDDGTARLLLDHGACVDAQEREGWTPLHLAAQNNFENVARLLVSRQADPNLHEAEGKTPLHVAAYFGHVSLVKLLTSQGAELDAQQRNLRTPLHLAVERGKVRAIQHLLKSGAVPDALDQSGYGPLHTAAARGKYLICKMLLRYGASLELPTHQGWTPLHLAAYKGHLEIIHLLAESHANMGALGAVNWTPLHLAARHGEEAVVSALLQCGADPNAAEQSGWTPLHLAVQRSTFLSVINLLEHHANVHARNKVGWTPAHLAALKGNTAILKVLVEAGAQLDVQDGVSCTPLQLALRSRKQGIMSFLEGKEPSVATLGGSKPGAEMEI

panel of 468 kinases [6] = molecular target: T6, panel of 468 kinases (Homo sapiens, UniProt Q00536); conditions: PCTK1; 1 μM; read-out: % control
T6 construct: purchased KINOMEscan (ScanMAX) service
T6 sequence (Q00536 whole entry): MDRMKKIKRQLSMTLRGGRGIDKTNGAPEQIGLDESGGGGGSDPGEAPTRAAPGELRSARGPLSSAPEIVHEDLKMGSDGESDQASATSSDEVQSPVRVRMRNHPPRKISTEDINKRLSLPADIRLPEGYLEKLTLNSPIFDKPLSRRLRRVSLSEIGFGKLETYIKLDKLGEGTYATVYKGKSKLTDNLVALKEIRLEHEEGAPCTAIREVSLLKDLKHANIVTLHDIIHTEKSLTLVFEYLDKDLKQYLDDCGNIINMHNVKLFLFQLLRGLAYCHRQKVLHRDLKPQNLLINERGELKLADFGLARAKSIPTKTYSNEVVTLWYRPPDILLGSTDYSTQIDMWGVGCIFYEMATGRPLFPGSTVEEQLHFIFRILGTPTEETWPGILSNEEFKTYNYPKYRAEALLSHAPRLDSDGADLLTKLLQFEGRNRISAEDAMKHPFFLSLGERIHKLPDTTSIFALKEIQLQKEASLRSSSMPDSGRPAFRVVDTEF

panel of 468 kinases [7] = molecular target: T7, panel of 468 kinases (Homo sapiens, UniProt Q6ZWH5); conditions: NEK10; 1 μM; read-out: % control
T7 construct: purchased KINOMEscan (ScanMAX) service
T7 sequence (Q6ZWH5 1-1172): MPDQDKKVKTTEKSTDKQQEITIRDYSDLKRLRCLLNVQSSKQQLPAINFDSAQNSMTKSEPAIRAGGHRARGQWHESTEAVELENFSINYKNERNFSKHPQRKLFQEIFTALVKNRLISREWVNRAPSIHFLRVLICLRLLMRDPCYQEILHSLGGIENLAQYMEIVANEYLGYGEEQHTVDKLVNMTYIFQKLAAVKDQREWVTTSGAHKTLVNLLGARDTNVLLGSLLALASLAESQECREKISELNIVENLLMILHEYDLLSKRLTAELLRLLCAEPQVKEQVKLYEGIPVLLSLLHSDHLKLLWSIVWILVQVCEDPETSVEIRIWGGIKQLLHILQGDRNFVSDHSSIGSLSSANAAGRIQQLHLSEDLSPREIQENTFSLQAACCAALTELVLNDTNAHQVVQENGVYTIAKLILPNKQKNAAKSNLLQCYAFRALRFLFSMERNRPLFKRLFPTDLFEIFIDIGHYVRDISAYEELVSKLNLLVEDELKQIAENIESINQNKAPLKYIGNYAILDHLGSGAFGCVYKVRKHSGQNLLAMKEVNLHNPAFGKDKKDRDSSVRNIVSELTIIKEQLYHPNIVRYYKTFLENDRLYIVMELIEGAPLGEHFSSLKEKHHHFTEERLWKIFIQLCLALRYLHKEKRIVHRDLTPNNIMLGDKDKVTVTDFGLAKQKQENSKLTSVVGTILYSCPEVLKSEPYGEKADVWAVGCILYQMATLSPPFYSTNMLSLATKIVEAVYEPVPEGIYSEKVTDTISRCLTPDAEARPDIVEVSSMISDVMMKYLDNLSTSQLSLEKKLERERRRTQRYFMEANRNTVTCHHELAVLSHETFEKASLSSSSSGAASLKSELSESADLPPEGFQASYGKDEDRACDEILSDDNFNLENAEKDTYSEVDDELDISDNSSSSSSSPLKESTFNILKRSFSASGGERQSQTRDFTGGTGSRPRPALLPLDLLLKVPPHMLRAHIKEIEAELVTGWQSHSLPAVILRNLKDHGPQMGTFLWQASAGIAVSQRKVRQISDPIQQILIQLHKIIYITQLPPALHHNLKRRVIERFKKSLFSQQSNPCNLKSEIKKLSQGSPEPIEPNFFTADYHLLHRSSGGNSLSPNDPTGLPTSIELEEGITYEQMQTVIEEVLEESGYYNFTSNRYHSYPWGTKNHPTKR

T1 sequence (Q2M2I8 whole entry): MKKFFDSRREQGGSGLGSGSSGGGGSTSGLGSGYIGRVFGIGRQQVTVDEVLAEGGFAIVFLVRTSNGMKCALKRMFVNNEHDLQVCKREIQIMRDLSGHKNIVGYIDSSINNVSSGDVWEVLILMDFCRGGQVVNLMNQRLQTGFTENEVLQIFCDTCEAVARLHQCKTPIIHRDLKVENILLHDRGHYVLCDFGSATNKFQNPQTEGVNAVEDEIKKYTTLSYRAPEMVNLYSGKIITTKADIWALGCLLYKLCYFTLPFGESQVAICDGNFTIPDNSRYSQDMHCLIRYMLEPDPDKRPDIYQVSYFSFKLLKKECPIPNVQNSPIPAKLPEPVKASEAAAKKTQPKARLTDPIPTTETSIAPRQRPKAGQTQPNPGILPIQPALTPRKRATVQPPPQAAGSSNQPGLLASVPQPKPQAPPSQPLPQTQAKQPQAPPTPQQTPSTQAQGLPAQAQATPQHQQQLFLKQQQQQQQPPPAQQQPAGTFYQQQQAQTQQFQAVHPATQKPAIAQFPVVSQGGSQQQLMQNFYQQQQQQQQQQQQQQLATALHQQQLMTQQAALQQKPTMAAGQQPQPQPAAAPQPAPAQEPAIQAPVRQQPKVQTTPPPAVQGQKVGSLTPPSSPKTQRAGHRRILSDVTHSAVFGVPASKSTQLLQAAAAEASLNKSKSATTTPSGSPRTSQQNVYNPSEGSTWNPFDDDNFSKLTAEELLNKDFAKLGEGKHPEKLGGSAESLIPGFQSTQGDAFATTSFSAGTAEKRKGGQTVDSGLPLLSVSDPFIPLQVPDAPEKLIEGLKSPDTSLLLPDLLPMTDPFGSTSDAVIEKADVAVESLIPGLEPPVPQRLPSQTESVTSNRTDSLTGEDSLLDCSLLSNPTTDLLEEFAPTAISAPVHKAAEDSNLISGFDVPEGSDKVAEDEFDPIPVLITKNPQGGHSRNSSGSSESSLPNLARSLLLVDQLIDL

SMILES	remaining binding at 1 µM (panel of 468 kinases [1]) [%]	remaining binding at 1 µM (panel of 468 kinases [2]) [%]	remaining binding at 1 µM (panel of 468 kinases [3]) [%]	remaining binding at 1 µM (panel of 468 kinases [4]) [%]	remaining binding at 1 µM (panel of 468 kinases [5]) [%]	remaining binding at 1 µM (panel of 468 kinases [6]) [%]	remaining binding at 1 µM (panel of 468 kinases [7]) [%]
CNc1nc(Nc2ccc(C(=O)N3CCC(N4CCOCC4)CC3)c3c2OCO3)nc2[nH]cc(Cl)c12 [Compound 75, (7-((5-chloro-4-(methylamino)-7H-pyrrolo[2,3-d]pyrimidin-2-yl)amino)benzo[d][1,3]dioxol-4-yl)(4-morpholinopiperidin-1-yl)methanone]	13	70	98	100	41	60	66
CNc1nc(Nc2ccc(S(=O)(=O)N3CCC(N4CCOCC4)CC3)cc2OC)nc2[nH]cc(Cl)c12 [Compound 12, 5-chloro-N2-(2-methoxy-4-((4-morpholinopiperidin-1-yl)sulfonyl)phenyl)-N4-methyl-7H-pyrrolo[2,3-d]pyrimidine-2,4-diamine]	100	56	100	100	73	64	63
CNc1nc(Nc2ccc(P3(=O)CCN(C4CCOCC4)CC3)cc2OC)nc2[nH]cc(Cl)c12 [Compound 77, 4-(4-((5-chloro-4-(methylamino)-7H-pyrrolo[2,3-d]pyrimidin-2-yl)amino)-3-methoxyphenyl)-1-(tetrahydro-2H-pyran-4-yl)-1,4-azaphosphinane 4-oxide]	99	36	100	100	65	84	39
